≈ marks a conversion by molar mass, not a printed value. Structures can show the parent of a compound that is named as a salt. Where two headings read alike, the source gives them in different places.
Experiments:
H. pylori = assay: MIC testing by broth dilution, H. pylori; type: cell-based, Helicobacter pylori; settings: 24 h, read-out: MIC (μM) H. pylori
Experimental: (§1) A standard broth dilution protocol was used in 96 well microplates containing a standard dilution of the microorganism to be tested in 100 microliters of the appropriate medium. Appropriate medium: E. coli, LB medium; Staphylococcus strains, Trypticase Soy; and for H. pylori and C. jejuni, Brain Heart Infusion. The compounds to be tested were set at 32 μg/ml in 200 microliters in well one and then serially diluted to provide a range from 32 to 0.06. The wells were scored visually at 24 h. The well where there was no growth was recorded as the MIC. Clostridium difficile was tested by agar diffusion and disk diffusion (Kirby Bower) methods under anaerobic conditions on Wilkins Chalgrin agar. In these assays, zone of inhibited growth was measured and compared by relative ratio to the zone recorded for NTZ.
(§2) Representative compounds of the invention were tested in a series of assays against a series of organisms as described above. […] The organisms tested include, C. difficile, H. pylori, C. jejuni, MRSA, S. epidermidis, and E. coli. S. epidermidis and E. coli were tested in the plank and biofilm assay. A disk diffusion assay was also used for C. difficile. Direct PFOR enzyme assays were also performed. All analogues and derivatives were not tested on every organism in every type of assay (the “-” in each table means that it was not tested).

C. jejuni = assay: MIC testing by broth dilution, C. jejuni; type: cell-based, Campylobacter jejuni; settings: 24 h, read-out: MIC (μM) C. jejuni
Experimental: as §1, §2

MRSA = assay: MIC testing by broth dilution, MRSA; type: cell-based, Staphylococcus aureus; settings: 24 h, read-out: MIC (μM) MRSA
Experimental: as §1, §2

S. epidermidis = assay: MIC testing by broth dilution, S. epidermidis plank; type: cell-based, Staphylococcus epidermidis; settings: 24 h, read-out: MIC (μM) S. epidermidis Plank
Experimental: as §1, §2

E. coli = assay: MIC testing by broth dilution, E. coli plank; type: cell-based, Escherichia coli; settings: 24 h, read-out: MIC (μM) E. coli Plank
Experimental: as §1, §2

C. difficile = assay: Disk diffusion (Kirby Bower), C. difficile; type: cell-based, Clostridium difficile; settings: zone of inhibited growth as relative ratio to the zone for NTZ
Experimental: as §1, §2

[1] = broth dilution, Brain Heart Infusion

SMILES | MIC (H. pylori; [1]) [µM] | MIC (C. jejuni; [1]) [µM] | MIC (MRSA; broth dilution, Trypticase Soy) [µM] | MIC (S. epidermidis; broth dilution, Trypticase Soy) [µM] | MIC (E. coli; broth dilution, LB medium) [µM] | Disk Diffusion (%) C. difficile (C. difficile) [%] | MIC (H. pylori; Helicobacter pylori) [µM] | MIC (C. jejuni; Campylobacter jejuni) [µM] | MIC (MRSA; Staphylococcus aureus, MRSA) [µM] | MIC (S. epidermidis; Staphylococcus epidermidis) [µM] | MIC (E. coli; Escherichia coli) [µM]
CC(C)(C)OC(=O)Nc1ccccc1C(=O)Nc1ncc([N+](=O)[O-])s1 [VPC162047, tert-Butyl 2-(5-nitrothiazol-2-ylcarbamoyl)phenylcarbamate] |  |  |  |  |  | 83 | 0.3 (≈ 0.109 µg/mL) | 27.4 (≈ 9.98 µg/mL) | 5.5 (≈ 2 µg/mL) | 5.5 (≈ 2 µg/mL) | 87.8 (≈ 32 µg/mL)
Nc1ccccc1C(=O)Nc1ncc([N+](=O)[O-])s1 [VPC162055] | 2.4 (≈ 0.634 µg/mL) | 11.4 (≈ 3.01 µg/mL) | 121.1 (≈ 32 µg/mL) | 90.8 (≈ 24 µg/mL) | 45.4 (≈ 12 µg/mL) | 83 |  |  |  |  | 
Cl.O=C(Nc1ncc([N+](=O)[O-])s1)c1ccccc1OCCNC(=O)C1CCNCC1 [VPC162068] | 52.6 | 35.1 | 70.2 | 70.2 | 70.2 |  |  |  |  |  | 
NCCOC(=O)COc1ccccc1C(=O)Nc1ncc([N+](=O)[O-])s1 [VPC162082, 2-Aminoethyl 2-(2-(5-nitrothiazol-2-ylcarbamoyl)phenoxy)acetate hydrochloride] |  |  |  |  |  |  | 6.2 | 29.8 | 79.4 | 79.4 | 79.4
Cl.O=C(COc1ccccc1C(=O)Nc1ncc([N+](=O)[O-])s1)OC1CNC1 [VPC162083] | 24.1 | 77.1 | 77.1 | 77.1 | 77.1 |  |  |  |  |  | 

The next lines start with results.

MIC (H. pylori; [1]) [µM] | MIC (C. jejuni; [1]) [µM] | MIC (MRSA; broth dilution, Trypticase Soy) [µM] | MIC (S. epidermidis; broth dilution, Trypticase Soy) [µM] | MIC (E. coli; broth dilution, LB medium) [µM] | SMILES | Disk Diffusion (%) C. difficile (C. difficile) [%] | MIC (H. pylori; Helicobacter pylori) [µM] | MIC (C. jejuni; Campylobacter jejuni) [µM] | MIC (MRSA; Staphylococcus aureus, MRSA) [µM] | MIC (S. epidermidis; Staphylococcus epidermidis) [µM] | MIC (E. coli; Escherichia coli) [µM]
1.1 (≈ 0.385 µg/mL) | 34.3 (≈ 12 µg/mL) | 91.3 (≈ 32 µg/mL) | 22.8 (≈ 7.99 µg/mL) | 91.3 (≈ 32 µg/mL) | CC(=O)NCCOc1ccccc1C(=O)Nc1ncc([N+](=O)[O-])s1 [VPC162044] | 77 |  |  |  |  | 
0.6 (≈ 0.232 µg/mL) | 51.8 (≈ 20 µg/mL) | 82.8 (≈ 32 µg/mL) | 62.1 (≈ 24 µg/mL) | 82.8 (≈ 32 µg/mL) | CS(=O)(=O)NCCOc1ccccc1C(=O)Nc1ncc([N+](=O)[O-])s1 [VPC162045] | 51 |  |  |  |  | 
6.9 (≈ 2.11 µg/mL) | 41.6 (≈ 12.7 µg/mL) | 55.5 (≈ 17 µg/mL) | 111.0 (≈ 34 µg/mL) | 111.0 (≈ 34 µg/mL) | CC(=O)Nc1ccccc1C(=O)Nc1ncc([N+](=O)[O-])s1 [VPC162046b] |  |  |  |  |  | 
0.4 (≈ 0.171 µg/mL) | 74.9 (≈ 32 µg/mL) | 74.9 (≈ 32 µg/mL) | 74.9 (≈ 32 µg/mL) | 74.9 (≈ 32 µg/mL) | O=C(NCCOc1ccccc1C(=O)Nc1ncc([N+](=O)[O-])s1)Nc1ccccc1 [VPC162048] | 31 |  |  |  |  | 
1.5 (≈ 0.505 µg/mL) | 17.8 (≈ 5.99 µg/mL) | 95.1 (≈ 32 µg/mL) | 95.1 (≈ 32 µg/mL) | 95.1 (≈ 32 µg/mL) | CN(C)CCOc1ccccc1C(=O)Nc1ncc([N+](=O)[O-])s1 [VPC162052] |  |  |  |  |  | 
0.9 (≈ 0.359 µg/mL) | 80.3 (≈ 32 µg/mL) | 80.3 (≈ 32 µg/mL) | 80.3 (≈ 32 µg/mL) | 80.3 (≈ 32 µg/mL) | O=C(COc1ccccc1C(=O)Nc1ncc([N+](=O)[O-])s1)Nc1ccccc1 [VPC162056] |  |  |  |  |  | 
1.9 (≈ 0.772 µg/mL) | 78.7 (≈ 32 µg/mL) | 78.7 (≈ 32 µg/mL) | 4.9 (≈ 1.99 µg/mL) | 78.7 (≈ 32 µg/mL) | CCCCCCNC(=O)COc1ccccc1C(=O)Nc1ncc([N+](=O)[O-])s1 [VPC162064] |  |  |  |  |  | 
2.3 (≈ 1 µg/mL) | 36.7 (≈ 16 µg/mL) | 73.5 (≈ 32 µg/mL) | 27.6 (≈ 12 µg/mL) | 73.5 (≈ 32 µg/mL) | O=C(COc1ccccc1C(=O)Nc1ncc([N+](=O)[O-])s1)NCCN1CCOCC1 [VPC162065] |  |  |  |  |  | 

Source: patent US8835644B2, “Broad spectrum benzothiophene-nitrothiazolide and other antimicrobials” (University of Virginia Patent Foundation, priority 2009, dated 2014)
